How the values were obtained:
LNCaP-tumor xenograft = test: Biodistribution in LNCaP-tumor xenograft bearing CB-17 SCID mice; assay type: in vivo; settings: mouse, in vivo
Description: All animal experiments were carried out in accordance with the general animal welfare regulations in Germany (Deutsches Tierschutzgesetz, approval #55.2-1-54-2532-71-13). For the tumor model, LNCaP cells (approx. 10^7 cells) were suspended in serum-free DMEM-F12 medium and Matrigel (1/1; v/v) (BD Biosciences, Germany) and inoculated onto the right shoulder of male, 6 to 8 weeks old CB-17 SCID mice (Charles River Laboratories, Sulzfeld, Germany). Animals were used after the tumor size reached 4 to 8 mm in diameter for experiments.

[1] = Lipophilicity, logP in n-octanol/PBS of radiolabeled PSMA inhibitors; assay type: physicochemical; settings: pH 7.4
Description: The radiolabeled PSMA inhibitor (0.5 to 1.0 MBq) dissolved in PBS (500 μL, pH=7.4), was added to n-octanol (500 μL) in a reaction vial (1.5 mL), which was rigorously vortexed for 3 min (n=6). For quantitative phase separation, the mixture was centrifuged at 6,000 g for 5 min (Biofuge 15, Heraus Sepatech, Osterode, Germany). The activity from samples of each phase (100 μL) were measured in a γ-counter to obtain the log P(o/w) value.

HSA = biological target: T1, HSA (Homo sapiens, UniProt P02768); test: HSA binding on Chiralpak HSA column; assay type: in vitro ADME; settings: human, 0.5 mg/mL
T1 construct: purchased Daicel Chemical Industries / Chiral Technologies Europe (Illkirch, France)
Description: HSA binding experiments were performed as previously described. […] For each run, 10 μL of the solution containing the inhibitor was injected into the RP-HPLC system and the retention time measured. […] Non-linear regression was established with OriginPro 2016G.

LNCaP cells = test: Internalization into LNCaP cells, relative cellular uptake to ([^125I]I-BA)KuE; assay type: cell-based; settings: c = 1.0 nM ^177Lu-labeled inhibitor, 37° C., 60 min, corrected for non-specific binding (10 μM 2-PMPA), mean ± SD (n = 3)
Description: PSMA-positive LNCAP cells (300265; Cell Lines Service GmbH) were cultivated in Dulbecco modified Eagle medium/Nutrition Mixture F-12 (1/1) (DMEM-F12, Biochrom) supplemented with fetal calf serum (FCS) (10%, Biochrom) and kept at 37° C. in a humidified CO2 atmosphere (5%). One day (24 h±2 h) prior to all experiments with LNCaP cells, the cultivated cells were harvested using a mixture of trypsin/ethylendiaminetetraacetate (0.05%/0.02%) and PBS and centrifuged. After centrifugation, the supernatant was disposed and the cell pellet resuspended in culture medium. Afterwards, cells were counted with a hemocytometer (Neubauer) and seeded in 24-well plates.
Subsequent to the removal of the culture medium, the cells were washed once with DMEM-F12-solution (500 μL, 5% BSA) and left to equilibrate for at least 15 min at 37° C. in DMEM-F12-solution (200 μL, 5% BSA). Afterwards, each well was treated with either DMEM-F12-solution (25 μL, 5% BSA) or 2-PMPA-solution (25 μL, 100 μm) for blockade. […] The experiment was terminated by placing the 24-well plate on ice for 3 min and the consecutive removal of the medium. Each well was rinsed with HBSS (250 μL) and the fractions from these first two steps combined, representing the amount of free radioligand. Removal of surface bound activity was accomplished by incubation of the cells with ice-cold 2-PMPA-solution (250 μL, 10 μm in PBS) for 5 min and subsequent rinsing with ice-cold PBS (250 μL). The internalized activity was determined through incubation of the cells in NaOH (250 μL, 1.0 m) and the combination with the fraction of the subsequent washing step with again NaOH (250 μL, 1.0 m). Each experiment (control and blockade) was performed in triplicate for each time point. Free, surface bound and internalized activity was quantified in a γ-counter.

T1 sequence (P02768 25-609): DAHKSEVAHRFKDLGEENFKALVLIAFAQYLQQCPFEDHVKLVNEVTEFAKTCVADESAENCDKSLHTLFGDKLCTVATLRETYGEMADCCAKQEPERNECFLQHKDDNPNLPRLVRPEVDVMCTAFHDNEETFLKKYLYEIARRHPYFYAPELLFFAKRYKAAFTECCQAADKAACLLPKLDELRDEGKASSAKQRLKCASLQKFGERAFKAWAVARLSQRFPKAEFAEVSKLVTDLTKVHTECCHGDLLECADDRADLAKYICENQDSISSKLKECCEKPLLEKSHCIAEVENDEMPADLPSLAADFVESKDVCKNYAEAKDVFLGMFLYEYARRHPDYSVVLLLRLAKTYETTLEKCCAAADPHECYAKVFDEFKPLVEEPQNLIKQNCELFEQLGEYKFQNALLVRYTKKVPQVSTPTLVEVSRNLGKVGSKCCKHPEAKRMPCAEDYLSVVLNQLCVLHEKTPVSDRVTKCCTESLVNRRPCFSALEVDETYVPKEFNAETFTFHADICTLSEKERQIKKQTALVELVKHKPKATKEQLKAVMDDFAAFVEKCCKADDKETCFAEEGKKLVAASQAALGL

For `Nc1ccc(C[C@H](NC(=O)CCC(C(=O)O)N2CCN(CC(=O)O)CCN(CC(=O)O)CCN(CC(=O)O)CC2)C(=O)N[C@H](Cc2ccc(O)cc2)C(=O)N[C@H](Cc2ccc3ccccc3c2)C(=O)N[C@H](CCCCNC(=O)[C@@H](CC(=O)NCCC[C@@H](NC(=O)CC[C@H](NC(=O)N[C@@H](CCC(=O)O)C(=O)O)C(=O)O)C(=O)O)NC(=O)c2cc(C(=O)O)cc(C(=O)O)c2)C(=O)O)cc1` (stereo partly shown) [PSMA-62, DOTAGA-F(4-NH2)y-2-nal-k(d[N^5-orn-C^4-EuE]-TMA)], the adrenal gland (LNCaP-tumor xenograft; male, CB-17 SCID, 1 h) was 1.92 ± 0.80 % ID/g, the blood (LNCaP-tumor xenograft; male, CB-17 SCID, 1 h) was 0.52 ± 0.03 % ID/g and the bone (LNCaP-tumor xenograft; male, CB-17 SCID, 1 h) was 0.30 ± 0.08 % ID/g. For the same molecule, the brain (LNCaP-tumor xenograft; male, CB-17 SCID, 1 h) was 0.03 ± 0.01 % ID/g, the heart (LNCaP-tumor xenograft; male, CB-17 SCID, 1 h) was 0.58 ± 0.06 % ID/g and the intestine (LNCaP-tumor xenograft; male, CB-17 SCID, 1 h) was 0.49 ± 0.25 % ID/g. It also gave a liver (LNCaP-tumor xenograft; male, CB-17 SCID, 1 h) of 0.37 ± 0.04 % ID/g, a lung (LNCaP-tumor xenograft; male, CB-17 SCID, 1 h) of 0.87 ± 0.11 % ID/g and a muscle (LNCaP-tumor xenograft; male, CB-17 SCID, 1 h) of 0.12 ± 0.03 % ID/g. The pancreas (LNCaP-tumor xenograft; male, CB-17 SCID, 1 h) was 0.18 ± 0.05 % ID/g, the spleen (LNCaP-tumor xenograft; male, CB-17 SCID, 1 h) was 4.62 ± 1.81 % ID/g and the stomach (LNCaP-tumor xenograft; male, CB-17 SCID, 1 h) was 0.51 ± 0.2 % ID/g. For the same molecule, the tumor (LNCaP-tumor xenograft; male, CB-17 SCID, 1 h) was 8.00 ± 0.78 % ID/g, the tumor/blood (LNCaP-tumor xenograft; male, CB-17 SCID, 1 h) was 15.4 and the tumor/kidney (LNCaP-tumor xenograft; male, CB-17 SCID, 1 h) was 0.08. The tumor/muscle (LNCaP-tumor xenograft; male, CB-17 SCID, 1 h) was 66.7, the adrenal g. (LNCaP-tumor xenograft; male, CB-17 SCID, 24 h) was 0.04 ± 0.02 % ID/g and the blood (LNCaP-tumor xenograft; male, CB-17 SCID, 24 h) was 0.004 ± 0.001 % ID/g. It also gave a bone (LNCaP-tumor xenograft; male, CB-17 SCID, 24 h) of 0.04 ± 0.006 % ID/g, a brain (LNCaP-tumor xenograft; male, CB-17 SCID, 24 h) of 0.01 ± 0.006 % ID/g and a heart (LNCaP-tumor xenograft; male, CB-17 SCID, 24 h) of 0.02 ± 0.01 % ID/g. The intestine (LNCaP-tumor xenograft; male, CB-17 SCID, 24 h) was 0.03 ± 0.02 % ID/g, the liver (LNCaP-tumor xenograft; male, CB-17 SCID, 24 h) was 0.17 ± 0.07 % ID/g and the lung (LNCaP-tumor xenograft; male, CB-17 SCID, 24 h) was 0.03 ± 0.02 % ID/g. The muscle (LNCaP-tumor xenograft; male, CB-17 SCID, 24 h) was 0.007 ± 0.001 % ID/g, the pancreas (LNCaP-tumor xenograft; male, CB-17 SCID, 24 h) was 0.01 ± 0.002 % ID/g and the spleen (LNCaP-tumor xenograft; male, CB-17 SCID, 24 h) was 0.09 ± 0.06 % ID/g. It also gave a stomach (LNCaP-tumor xenograft; male, CB-17 SCID, 24 h) of 0.03 ± 0.01 % ID/g, a t/blood (LNCaP-tumor xenograft; male, CB-17 SCID, 24 h) of 1925.0 and a t/kidney (LNCaP-tumor xenograft; male, CB-17 SCID, 24 h) of 1.5. It also gave a t/liver (LNCaP-tumor xenograft; male, CB-17 SCID, 24 h) of 45.3, a t/muscle (LNCaP-tumor xenograft; male, CB-17 SCID, 24 h) of 1100.0 and a tumor (LNCaP-tumor xenograft; male, CB-17 SCID, 24 h) of 7.70 ± 1.35 % ID/g. The logP [1] was -4.12 ± 0.05, the “HSA (albumin binding)” value (HSA) was greater than 91.0% and the Internalization (LNCaP cells; listed as [^177Lu]PSMA-62) was 343.9%. It also gave an Internalization (LNCaP cells; listed as [^nat/177Lu]PSMA-62) of 343.9 ± 6.0%.
In the case of `O=C(O)CC[C@H](NC(=O)N[C@@H](CCC(=O)NC(CCCNC(=O)C[C@@H](NC(=O)c1cc(C(=O)O)cc(C(=O)O)c1)C(=O)NCCCC[C@@H](NC(=O)[C@@H](Cc1ccc2ccccc2c1)NC(=O)[C@@H](Cc1ccc(O)cc1)NC(=O)[C@H](Cc1ccc2ccccc2c1)NC(=O)CCC(C(=O)O)N1CCN(CC(=O)O)CCN(CC(=O)O)CCN(CC(=O)O)CC1)C(=O)O)C(=O)O)C(=O)O)C(=O)O` (stereo partly shown) [PSMA-71, DOTAGA-2-Nal-y-2-nal-k(d[N^5-orn-C^4-EuE]-TMA)], the adrenal g. (LNCaP-tumor xenograft; male, CB-17 SCID, 24 h) is reported as 0.32 ± 0.15 % ID/g, the blood (LNCaP-tumor xenograft; male, CB-17 SCID, 24 h) is reported as 0.008 ± 0.001 % ID/g and the bone (LNCaP-tumor xenograft; male, CB-17 SCID, 24 h) is reported as 0.04 ± 0.02 % ID/g. The brain (LNCaP-tumor xenograft; male, CB-17 SCID, 24 h) was 0.01 ± 0.002 % ID/g, the heart (LNCaP-tumor xenograft; male, CB-17 SCID, 24 h) was 0.07 ± 0.01 % ID/g and the intestine (LNCaP-tumor xenograft; male, CB-17 SCID, 24 h) was 0.27 ± 015 % ID/g. It also gave a liver (LNCaP-tumor xenograft; male, CB-17 SCID, 24 h) of 0.38 ± 0.14 % ID/g, a lung (LNCaP-tumor xenograft; male, CB-17 SCID, 24 h) of 0.05 ± 0.01 % ID/g and a muscle (LNCaP-tumor xenograft; male, CB-17 SCID, 24 h) of 0.01 ± 0.001 % ID/g. For the same molecule, the pancreas (LNCaP-tumor xenograft; male, CB-17 SCID, 24 h) was 0.15 ± 0.15 % ID/g, the spleen (LNCaP-tumor xenograft; male, CB-17 SCID, 24 h) was 0.27 ± 0.15 % ID/g and the stomach (LNCaP-tumor xenograft; male, CB-17 SCID, 24 h) was 0.20 ± 0.10 % ID/g. It also gave a t/blood (LNCaP-tumor xenograft; male, CB-17 SCID, 24 h) of 1786.3, a t/kidney (LNCaP-tumor xenograft; male, CB-17 SCID, 24 h) of 0.4 and a t/liver (LNCaP-tumor xenograft; male, CB-17 SCID, 24 h) of 37.6. For the same molecule, the t/muscle (LNCaP-tumor xenograft; male, CB-17 SCID, 24 h) was 1429.0, the tumor (LNCaP-tumor xenograft) was “highest tumor uptake” and the logP [1] was -4.13 ± 0.09. For the same molecule, the “HSA (albumin binding)” value (HSA) was 98.2%, the Internalization (LNCaP cells; listed as [^177Lu]PSMA-71) was 206.8±1.7% and the Internalization (LNCaP cells; listed as [^nat/177Lu]PSMA-71) was 206.8 ± 1.7%.
